Results published in PubChem BioAssay (NCI).
Several values for one entry are separate records, joined by “and”; a condition that tells them apart may be missing. Identical values can stand only once.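 Five compound concentrations were applied to cells in 96-well plates for 48 hours; endpoints were derived by simple linear interpolation of the resulting dose-response curve. GI50: concentration for 50% inhibition of growth. TGI is the concentration that stops growth completely.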

How the values were obtained:
Assay in all cases: growth of human tumour cells (NCI), 48 h
SW-620 colon = tested on: SW-620 colon
BT-549 breast = tested on: BT-549 breast
OVCAR-3 ovarian = tested on: OVCAR-3 ovarian
NCI-H460 lung = tested on: NCI-H460 lung
U251 CNS = tested on: U251 CNS
LOX IMVI melanoma = tested on: LOX IMVI melanoma
SK-OV-3 ovarian = tested on: SK-OV-3 ovarian
UO-31 renal = tested on: UO-31 renal
SF-268 CNS = tested on: SF-268 CNS
SNB-19 CNS = tested on: SNB-19 CNS
A498 renal = tested on: A498 renal
SK-MEL-2 melanoma = tested on: SK-MEL-2 melanoma
UACC-62 melanoma = tested on: UACC-62 melanoma
HCT-116 colon = tested on: HCT-116 colon
RPMI-8226 leukemia = tested on: RPMI-8226 leukemia
MALME-3M melanoma = tested on: MALME-3M melanoma
HL-60(TB) leukemia = tested on: HL-60(TB) leukemia
MDA-MB-435 = tested on: MDA-MB-435
OVCAR-8 ovarian = tested on: OVCAR-8 ovarian
COLO 205 colon = tested on: COLO 205 colon
HCT-15 colon = tested on: HCT-15 colon
MDA-MB-231 breast = tested on: MDA-MB-231 breast
HT29 colon = tested on: HT29 colon
HOP-62 NSCLC = tested on: HOP-62 NSCLC
NCI-H226 lung = tested on: NCI-H226 lung
EKVX NSCLC = tested on: EKVX NSCLC
SK-MEL-28 melanoma = tested on: SK-MEL-28 melanoma
DU-145 prostate = tested on: DU-145 prostate
SN12C renal = tested on: SN12C renal
OVCAR-5 ovarian = tested on: OVCAR-5 ovarian
CAKI-1 renal = tested on: CAKI-1 renal
786-0 renal = tested on: 786-0 renal
TK-10 renal = tested on: TK-10 renal
ACHN renal = tested on: ACHN renal
SK-MEL-5 melanoma = tested on: SK-MEL-5 melanoma
UACC-257 melanoma = tested on: UACC-257 melanoma
OVCAR-4 ovarian = tested on: OVCAR-4 ovarian
SF-539 CNS = tested on: SF-539 CNS
SNB-75 CNS = tested on: SNB-75 CNS
HOP-92 NSCLC = tested on: HOP-92 NSCLC
NCI-H522 lung = tested on: NCI-H522 lung
T-47D breast = tested on: T-47D breast
M14 melanoma = tested on: M14 melanoma
K-562 leukemia = tested on: K-562 leukemia
MCF7 breast = tested on: MCF7 breast
MOLT-4 leukemia = tested on: MOLT-4 leukemia
NCI/ADR-RES ovarian = tested on: NCI/ADR-RES ovarian
KM12 colon = tested on: KM12 colon
HS 578T breast = tested on: HS 578T breast
RXF 393 renal = tested on: RXF 393 renal
CCRF-CEM leukemia = tested on: CCRF-CEM leukemia
SF-295 CNS = tested on: SF-295 CNS
NCI-H23 lung = tested on: NCI-H23 lung
SR leukemia = tested on: SR leukemia
HCC-2998 colon = tested on: HCC-2998 colon
A549 NSCLC = tested on: A549 NSCLC
IGROV1 ovarian = tested on: IGROV1 ovarian
PC-3 prostate = tested on: PC-3 prostate

Compound: CC1CCCc2sc3nc(NNC(=O)c4cnccn4)n(-c4ccccc4)c(=O)c3c21 (stereo not given)
- GI50 (SW-620 colon): 0.483 µM and 0.463 µM
- TGI (SW-620 colon): > 100 µM
- GI50 (BT-549 breast): 0.813 µM and 0.472 µM
- TGI (BT-549 breast): 28.6 µM and 12.4 µM
- GI50 (OVCAR-3 ovarian): 0.288 µM and 0.249 µM
- TGI (OVCAR-3 ovarian): 22.2 µM and 12.5 µM
- GI50 (NCI-H460 lung): 0.25 µM and 0.121 µM
- TGI (NCI-H460 lung): 11.4 µM and 2.27 µM
- GI50 (U251 CNS): 0.26 µM and 0.182 µM
- TGI (U251 CNS): > 40.8 µM and 30.1 µM
- GI50 (LOX IMVI melanoma): 0.259 µM and 0.195 µM
- TGI (LOX IMVI melanoma): 3.8 µM and 8.06 µM
- GI50 (SK-OV-3 ovarian): 0.489 µM and 0.544 µM
- TGI (SK-OV-3 ovarian): 8.42 µM and 8.2 µM
- GI50 (UO-31 renal): 0.214 µM and 0.151 µM
- TGI (UO-31 renal): 6.47 µM and 2.96 µM
- GI50 (SF-268 CNS): 0.346 µM and 0.207 µM
- TGI (SF-268 CNS): > 100 µM
- GI50 (SNB-19 CNS): 0.389 µM and 0.34 µM
- TGI (SNB-19 CNS): > 100 µM
- GI50 (A498 renal): 2.62 µM and 0.688 µM
- TGI (A498 renal): 8.54 µM and 4.44 µM
- GI50 (SK-MEL-2 melanoma): 1.05 µM and 0.705 µM
- TGI (SK-MEL-2 melanoma): 19.4 µM and 19.8 µM
- GI50 (UACC-62 melanoma): 0.296 µM and 0.258 µM
- TGI (UACC-62 melanoma): 2.2 µM and 1.11 µM
- GI50 (HCT-116 colon): 0.338 µM and 0.264 µM
- TGI (HCT-116 colon): 14 µM and 13.4 µM
- GI50 (RPMI-8226 leukemia): 0.563 µM and 0.277 µM
- TGI (RPMI-8226 leukemia): 17.9 µM and 16.6 µM
- GI50 (MALME-3M melanoma): 0.657 µM and 0.345 µM
- TGI (MALME-3M melanoma): 11.6 µM and 11.1 µM
- GI50 (HL-60(TB) leukemia): 0.367 µM and 0.279 µM
- TGI (HL-60(TB) leukemia): 2.75 µM and 0.908 µM
- GI50 (MDA-MB-435): 0.7 µM and 0.556 µM
- TGI (MDA-MB-435): 25.1 µM and > 40.8 µM
- GI50 (OVCAR-8 ovarian): 0.346 µM and 0.333 µM
- TGI (OVCAR-8 ovarian): > 93.2 µM
- GI50 (COLO 205 colon): 0.327 µM and 0.284 µM
- TGI (COLO 205 colon): 3.52 µM and 25 µM
- GI50 (HCT-15 colon): 0.237 µM and 0.0717 µM
- TGI (HCT-15 colon): 34.4 µM and 17.6 µM
- GI50 (MDA-MB-231 breast): 0.425 µM and 0.328 µM
- TGI (MDA-MB-231 breast): 13.4 µM and 13.5 µM
- GI50 (HT29 colon): 0.975 µM and 0.461 µM
- TGI (HT29 colon): 49 µM and 17.6 µM
- GI50 (HOP-62 NSCLC): 0.385 µM and 0.203 µM
- TGI (HOP-62 NSCLC): > 100 µM
- GI50 (NCI-H226 lung): 0.634 µM and 0.277 µM
- TGI (NCI-H226 lung): 9.6 µM and 5.75 µM
- GI50 (EKVX NSCLC): 0.383 µM and 0.258 µM
- TGI (EKVX NSCLC): > 100 µM
- GI50 (SK-MEL-28 melanoma): 0.485 µM and 0.378 µM
- TGI (SK-MEL-28 melanoma): 19.8 µM and 32.5 µM
- GI50 (DU-145 prostate): 0.598 µM and 0.339 µM
- TGI (DU-145 prostate): > 39.8 µM and 18.9 µM
- GI50 (SN12C renal): 0.468 µM and 0.368 µM
- TGI (SN12C renal): 15.9 µM and 13.7 µM
- GI50 (OVCAR-5 ovarian): 0.656 µM and 0.371 µM
- TGI (OVCAR-5 ovarian): 30.9 µM and 33.6 µM
- GI50 (CAKI-1 renal): 0.559 µM and 0.334 µM
- TGI (CAKI-1 renal): > 54.4 µM and 9.23 µM
- GI50 (786-0 renal): 0.508 µM and 0.274 µM
- TGI (786-0 renal): 12.4 µM and 5.43 µM
- GI50 (TK-10 renal): 0.686 µM and 0.329 µM
- TGI (TK-10 renal): > 83 µM
- GI50 (ACHN renal): 0.331 µM and 0.217 µM
- TGI (ACHN renal): 18.7 µM and 13.1 µM
- GI50 (SK-MEL-5 melanoma): 0.371 µM and 0.205 µM
- TGI (SK-MEL-5 melanoma): 1.81 µM and 0.933 µM
- GI50 (UACC-257 melanoma): 0.54 µM and 0.365 µM
- TGI (UACC-257 melanoma): 6.98 µM and 3.86 µM
- GI50 (OVCAR-4 ovarian): 0.211 µM and 0.215 µM
- TGI (OVCAR-4 ovarian): > 100 µM
- GI50 (SF-539 CNS): 0.658 µM and 0.328 µM
- TGI (SF-539 CNS): 10.3 µM and 4.32 µM
- GI50 (SNB-75 CNS): 1.06 µM and 0.899 µM
- TGI (SNB-75 CNS): 38.7 µM and > 50 µM
- GI50 (HOP-92 NSCLC): 0.996 µM and 0.397 µM
- TGI (HOP-92 NSCLC): 21.8 µM and 16.6 µM
- GI50 (NCI-H522 lung): 0.392 µM and 0.327 µM
- TGI (NCI-H522 lung): 10.2 µM and 16.6 µM
- GI50 (T-47D breast): 0.52 µM and 0.397 µM
- TGI (T-47D breast): > 100 µM
- GI50 (M14 melanoma): 0.321 µM and 0.205 µM
- TGI (M14 melanoma): 5.44 µM and 2.65 µM
- GI50 (K-562 leukemia): 0.454 µM and 0.399 µM
- TGI (K-562 leukemia): > 100 µM
- GI50 (MCF7 breast): 0.325 µM and 0.238 µM
- TGI (MCF7 breast): > 79.3 µM and 14.4 µM
- GI50 (MOLT-4 leukemia): 0.343 µM and 0.256 µM
- TGI (MOLT-4 leukemia): > 100 µM
- GI50 (NCI/ADR-RES ovarian): 0.38 µM and 0.232 µM
- GI50 (KM12 colon): 0.428 µM and 0.347 µM
- TGI (KM12 colon): > 49.1 µM and 32.5 µM
- GI50 (HS 578T breast): 3.46 µM and 2.79 µM
- TGI (HS 578T breast): > 74.6 µM and 87.3 µM
- GI50 (RXF 393 renal): 0.955 µM and 0.454 µM
- TGI (RXF 393 renal): 5.48 µM and 3.84 µM
- GI50 (CCRF-CEM leukemia): 0.295 µM and 0.169 µM
- TGI (CCRF-CEM leukemia): > 100 µM
- GI50 (SF-295 CNS): 0.479 µM and 0.159 µM
- TGI (SF-295 CNS): 15.4 µM and 7.81 µM
- GI50 (NCI-H23 lung): 0.871 µM and 0.465 µM
- TGI (NCI-H23 lung): > 100 µM and 26.5 µM
- GI50 (SR leukemia): 0.361 µM and 0.11 µM
- TGI (SR leukemia): > 32.6 µM
- GI50 (HCC-2998 colon): 0.55 µM and 0.324 µM
- TGI (HCC-2998 colon): 26.3 µM and 16.3 µM
- GI50 (A549 NSCLC): 0.367 µM and 0.262 µM
- TGI (A549 NSCLC): 22.4 µM and 16.2 µM
- GI50 (IGROV1 ovarian): 0.327 µM and 0.172 µM
- TGI (IGROV1 ovarian): 16.9 µM and 13.3 µM
- GI50 (PC-3 prostate): 0.499 µM and 0.385 µM
- TGI (PC-3 prostate): 22.2 µM and 26.6 µM
